Experimental findings from US20250092017A1, “2-PIPERIDYL OR 2-PYRAZOLYL SUBSTITUTED PYRIMIDINE COMPOUND SERVING AS EGFR INHIBITOR” (SUZHOU PUHE BIOPHARMA CO., LTD., priority 2022, published 2025) are described below.

Read-outs that look alike come from different tables or passages of the source.

What all share (assay type): cell-based
Assay [1] has as its target T1, Ba/F3-FL-EGFR (Homo sapiens, UniProt P00533).
T1 construct: FL read as full length
Briefly: CellTiter-Glo proliferation, Ba/F3-FL-EGFR. The settings on record: 72 hours, read-out: Ba/F3-FL-EGFR IC50/nM. The method, then:
(§1) Promega CellTiter-Glo reagent was used to detect the effects of small molecule inhibitors on the proliferation of five Ba/F3 cell lines (Ba/F3-FL-EGFR, Ba/F3-FL-EGFR-L858R, Ba/F3-FL-EGFR-L858R-T790M-C797S, Ba/F3-TEL-EGFR-L858R-C797S and Ba/F3-FL-EGFR-del19-C797S).
(§2) The cell lines were cultured in an incubator at 37° C. and 5% CO2. Cells were passaged regularly and cells in the logarithmic phase were used for plating. 95 μL of cell suspension was added to each well of the cell plate, and culture medium without cells (containing 0.1% DMSO) was added to the Min control wells. Substance addition for compound detection cell plate: 5 μL of 20× compound working solution was added to the cell culture plate as shown in the table below. 50 μL of DMSO-cell culture medium mixture was added to the Max control, with the final DMSO concentration of 0.1%. 5 μL of DMSO-cell culture medium mixture was added to the Max control. The final DMSO concentration was 0.1%.
(§3) The compounds to be tested were added as per the table below
(§4) Cell viability was detected by CellTiter-Glo luminescence assay. Data analysis:
(§5) The cell proliferation inhibition rate (Inhibition Rate) data was processed using the following formula: […]
(§6) wherein: RLUDrug represents the relative luminescence unit of the cells with the addition of drug, RLUMin represents the luminescence unit of the culture medium, and RLUMax represents the relative luminescence unit of the cells with the addition of DMSO.
(§7) The inhibition rates corresponding to different concentrations of compounds were calculated in EXCEL, and then the inhibition rate curve was plotted using GraphPad Prism software and related parameters including the maximum and minimum inhibition rates of cells and IC50 values were calculated.

Assay [2] deals with T2, Ba/F3-TEL-EGFR-L858R-C797S (Homo sapiens, UniProt P00533, C797S/L858R, cells depend on it).
T2 construct: fused on or other part: N-terminal TEL (ETV6) oligomerising part fused to the EGFR intracellular/kinase part; P41212 (Transcription factor ETV6)
The assay is described as follows: CellTiter-Glo proliferation, Ba/F3-TEL-EGFR-L858R-C797S. The settings on record: 72 hours, read-out: Ba/F3-TEL-EGFR-L858R-C797S IC50/nM. The protocol: as §1, §2, §3, §4, §5, §6, §7

For assay [3], the target named is Ba/F3-FL-EGFR-L858R (Homo sapiens, UniProt P00533, L858R, cells depend on it). Briefly: CellTiter-Glo proliferation, Ba/F3-FL-EGFR-L858R. The settings on record: 72 hours, read-out: Ba/F3-FL-EGFR-L858R IC50/nM. The protocol:
as §1, §2, §3, §4, §5, §6, §7
Background: In ATP-based viability assays light output follows the ATP content of the culture.

The subject of assay [4] is Ba/F3-FL-EGFR-del19-C797S. Briefly: CellTiter-Glo proliferation, Ba/F3-FL-EGFR-del19-C797S. The settings on record: proliferation, 72 hours, CellTiter-Glo, read-out: Ba/F3-FL-EGFR-del19-C797S IC50/nM. The method, then: as §1, §2, §3, §4, §5, §6, §7
Assay [5] addresses Ba/F3-FL-EGFR-L858R-T790M-C797S (Homo sapiens, UniProt P00533, T790M/C797S/L858R, cells depend on it). Briefly: CellTiter-Glo proliferation, Ba/F3-FL-EGFR-L858R-T790M-C797S. The conditions noted are these: 72 hours, read-out: Ba/F3-FL-EGFR-L858R-T790M-C797S IC50/nM. The method, then: as §1, §2, §3, §4, §5, §6, §7

Ba/F3-FL-EGFR-L858R-T790M-C797S, sequence (P00533 whole entry T790M/C797S/L858R): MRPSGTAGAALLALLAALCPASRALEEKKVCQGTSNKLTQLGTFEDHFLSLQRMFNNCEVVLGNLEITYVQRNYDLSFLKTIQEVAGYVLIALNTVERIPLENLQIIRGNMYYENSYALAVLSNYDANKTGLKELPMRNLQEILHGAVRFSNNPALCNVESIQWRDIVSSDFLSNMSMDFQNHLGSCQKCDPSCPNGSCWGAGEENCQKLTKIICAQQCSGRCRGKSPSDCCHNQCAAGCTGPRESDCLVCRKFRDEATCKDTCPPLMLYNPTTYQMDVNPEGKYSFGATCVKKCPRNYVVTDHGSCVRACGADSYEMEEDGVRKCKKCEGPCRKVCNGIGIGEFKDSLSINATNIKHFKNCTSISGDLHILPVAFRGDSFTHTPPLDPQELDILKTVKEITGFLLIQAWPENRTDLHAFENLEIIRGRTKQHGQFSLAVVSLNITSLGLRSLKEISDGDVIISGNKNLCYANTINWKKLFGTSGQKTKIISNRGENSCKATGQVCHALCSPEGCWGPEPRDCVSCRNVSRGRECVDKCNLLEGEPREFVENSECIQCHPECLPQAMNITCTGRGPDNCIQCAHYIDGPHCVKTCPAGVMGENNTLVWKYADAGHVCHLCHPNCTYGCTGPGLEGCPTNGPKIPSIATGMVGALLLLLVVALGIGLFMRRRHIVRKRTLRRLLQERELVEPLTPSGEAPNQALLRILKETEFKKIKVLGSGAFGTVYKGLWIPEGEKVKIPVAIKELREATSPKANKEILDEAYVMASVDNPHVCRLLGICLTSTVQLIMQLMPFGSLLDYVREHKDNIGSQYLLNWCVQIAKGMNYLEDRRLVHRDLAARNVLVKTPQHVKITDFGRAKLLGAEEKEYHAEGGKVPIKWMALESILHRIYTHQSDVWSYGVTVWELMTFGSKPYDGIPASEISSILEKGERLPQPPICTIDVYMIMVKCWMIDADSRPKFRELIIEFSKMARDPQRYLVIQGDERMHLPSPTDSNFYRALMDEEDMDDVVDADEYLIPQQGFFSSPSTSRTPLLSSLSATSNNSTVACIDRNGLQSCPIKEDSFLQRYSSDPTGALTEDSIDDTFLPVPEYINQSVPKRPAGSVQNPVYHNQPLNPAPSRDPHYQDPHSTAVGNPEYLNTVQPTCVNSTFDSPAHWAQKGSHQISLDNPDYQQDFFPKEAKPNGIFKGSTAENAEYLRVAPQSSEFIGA
T1 sequence (P00533 whole entry, change not shown): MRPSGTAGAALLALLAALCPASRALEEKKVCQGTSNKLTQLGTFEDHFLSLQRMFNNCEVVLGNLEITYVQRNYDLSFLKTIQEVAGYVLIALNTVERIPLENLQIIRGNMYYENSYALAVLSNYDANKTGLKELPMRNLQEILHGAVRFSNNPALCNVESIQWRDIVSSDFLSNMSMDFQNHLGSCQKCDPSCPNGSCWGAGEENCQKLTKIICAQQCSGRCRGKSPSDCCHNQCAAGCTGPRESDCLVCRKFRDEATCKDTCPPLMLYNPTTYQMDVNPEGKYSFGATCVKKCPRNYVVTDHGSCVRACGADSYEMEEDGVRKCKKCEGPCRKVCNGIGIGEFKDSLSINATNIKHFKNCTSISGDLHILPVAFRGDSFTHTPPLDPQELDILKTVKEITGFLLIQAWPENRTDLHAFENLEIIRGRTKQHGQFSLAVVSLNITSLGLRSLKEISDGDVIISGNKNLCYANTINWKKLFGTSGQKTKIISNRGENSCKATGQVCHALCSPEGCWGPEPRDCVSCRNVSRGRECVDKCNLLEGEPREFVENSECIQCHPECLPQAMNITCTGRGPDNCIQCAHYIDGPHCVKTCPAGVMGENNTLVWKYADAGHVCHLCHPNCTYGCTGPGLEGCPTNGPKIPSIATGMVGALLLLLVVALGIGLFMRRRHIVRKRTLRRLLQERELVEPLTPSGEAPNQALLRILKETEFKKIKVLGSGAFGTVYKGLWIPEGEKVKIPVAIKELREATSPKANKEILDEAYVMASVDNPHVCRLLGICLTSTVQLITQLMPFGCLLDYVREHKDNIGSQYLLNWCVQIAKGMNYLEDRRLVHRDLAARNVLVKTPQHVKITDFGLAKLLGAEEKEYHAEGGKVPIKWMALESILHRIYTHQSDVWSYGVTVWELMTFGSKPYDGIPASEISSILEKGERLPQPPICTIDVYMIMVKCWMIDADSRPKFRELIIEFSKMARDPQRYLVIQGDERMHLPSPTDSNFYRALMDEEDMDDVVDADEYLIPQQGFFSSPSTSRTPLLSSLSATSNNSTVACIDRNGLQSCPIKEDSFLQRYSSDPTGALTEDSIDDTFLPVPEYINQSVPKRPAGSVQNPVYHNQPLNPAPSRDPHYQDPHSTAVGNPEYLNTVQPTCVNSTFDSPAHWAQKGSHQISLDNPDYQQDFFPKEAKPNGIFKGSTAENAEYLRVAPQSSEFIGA
Ba/F3-FL-EGFR-L858R, sequence (P00533 whole entry L858R): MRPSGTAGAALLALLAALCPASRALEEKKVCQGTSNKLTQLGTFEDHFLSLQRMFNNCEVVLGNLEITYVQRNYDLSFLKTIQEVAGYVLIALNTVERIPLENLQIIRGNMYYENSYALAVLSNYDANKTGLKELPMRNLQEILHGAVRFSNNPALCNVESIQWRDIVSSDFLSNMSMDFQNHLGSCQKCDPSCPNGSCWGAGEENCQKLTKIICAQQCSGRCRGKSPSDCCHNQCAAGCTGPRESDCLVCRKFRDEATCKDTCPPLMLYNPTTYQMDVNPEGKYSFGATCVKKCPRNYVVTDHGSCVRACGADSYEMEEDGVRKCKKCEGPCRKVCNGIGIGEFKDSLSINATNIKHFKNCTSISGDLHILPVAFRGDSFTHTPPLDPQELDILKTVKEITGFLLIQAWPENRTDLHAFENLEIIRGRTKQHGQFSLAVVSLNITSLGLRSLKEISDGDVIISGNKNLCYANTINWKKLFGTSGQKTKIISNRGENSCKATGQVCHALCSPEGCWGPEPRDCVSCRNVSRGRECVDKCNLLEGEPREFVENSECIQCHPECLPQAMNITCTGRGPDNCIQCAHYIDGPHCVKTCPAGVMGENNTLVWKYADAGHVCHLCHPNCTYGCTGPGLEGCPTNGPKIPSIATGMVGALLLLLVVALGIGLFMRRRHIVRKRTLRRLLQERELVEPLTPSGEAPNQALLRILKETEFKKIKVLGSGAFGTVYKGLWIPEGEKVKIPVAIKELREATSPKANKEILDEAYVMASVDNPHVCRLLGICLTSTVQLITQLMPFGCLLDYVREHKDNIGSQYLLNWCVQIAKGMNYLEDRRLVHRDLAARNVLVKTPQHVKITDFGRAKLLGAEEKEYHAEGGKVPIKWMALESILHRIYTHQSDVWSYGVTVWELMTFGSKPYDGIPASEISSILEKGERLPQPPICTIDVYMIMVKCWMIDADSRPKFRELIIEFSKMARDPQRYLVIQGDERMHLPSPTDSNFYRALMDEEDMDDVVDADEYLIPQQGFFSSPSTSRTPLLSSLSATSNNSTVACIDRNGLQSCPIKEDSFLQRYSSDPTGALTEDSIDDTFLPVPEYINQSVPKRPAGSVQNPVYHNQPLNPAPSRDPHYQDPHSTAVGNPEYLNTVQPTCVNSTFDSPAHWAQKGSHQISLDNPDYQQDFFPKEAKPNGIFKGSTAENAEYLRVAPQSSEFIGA
T2 sequence (P00533 whole entry C797S/L858R, the tested form may be a part): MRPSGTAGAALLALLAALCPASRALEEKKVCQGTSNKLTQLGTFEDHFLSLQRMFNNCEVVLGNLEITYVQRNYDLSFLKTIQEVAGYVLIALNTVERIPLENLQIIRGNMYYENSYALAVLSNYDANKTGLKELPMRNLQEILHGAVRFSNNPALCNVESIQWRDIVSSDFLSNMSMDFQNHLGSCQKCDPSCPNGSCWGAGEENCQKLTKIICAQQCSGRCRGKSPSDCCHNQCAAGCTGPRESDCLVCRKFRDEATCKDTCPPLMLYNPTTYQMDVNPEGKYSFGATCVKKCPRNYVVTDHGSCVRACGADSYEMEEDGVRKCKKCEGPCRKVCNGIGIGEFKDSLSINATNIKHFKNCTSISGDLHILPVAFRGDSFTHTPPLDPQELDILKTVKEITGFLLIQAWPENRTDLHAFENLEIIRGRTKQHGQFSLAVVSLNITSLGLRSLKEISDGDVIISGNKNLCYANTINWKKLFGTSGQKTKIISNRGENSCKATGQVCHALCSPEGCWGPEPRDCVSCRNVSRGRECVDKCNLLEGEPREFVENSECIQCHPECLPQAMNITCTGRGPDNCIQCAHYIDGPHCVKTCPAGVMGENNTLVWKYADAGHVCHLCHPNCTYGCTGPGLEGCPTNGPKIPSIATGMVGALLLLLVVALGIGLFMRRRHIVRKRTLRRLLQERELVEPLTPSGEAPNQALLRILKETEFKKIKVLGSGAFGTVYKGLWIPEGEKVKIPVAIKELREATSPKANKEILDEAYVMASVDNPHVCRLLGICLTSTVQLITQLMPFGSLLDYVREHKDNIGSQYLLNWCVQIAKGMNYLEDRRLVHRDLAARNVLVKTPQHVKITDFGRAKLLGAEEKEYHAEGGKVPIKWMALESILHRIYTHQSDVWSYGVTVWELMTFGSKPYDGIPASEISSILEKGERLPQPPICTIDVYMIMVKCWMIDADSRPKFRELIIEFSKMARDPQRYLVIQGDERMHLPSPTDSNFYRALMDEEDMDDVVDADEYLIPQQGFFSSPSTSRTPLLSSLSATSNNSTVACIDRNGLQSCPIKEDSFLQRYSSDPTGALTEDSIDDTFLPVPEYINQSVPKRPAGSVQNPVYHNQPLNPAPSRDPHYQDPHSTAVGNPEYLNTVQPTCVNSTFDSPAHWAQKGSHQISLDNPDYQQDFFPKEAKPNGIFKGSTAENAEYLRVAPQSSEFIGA

Regarding `CC(C)c1ccc(N2CC(CS(C)(=O)=O)C2)c2cnc(Nc3ccnc(-c4cnn(S(=O)(=O)CC5CC5)c4)n3)cc12` [Compound H14], the GI50 in assay [1] was found to be 721 nM; in assay [2], 28 nM; in assay [3], 71 nM; in assay [5], 136 nM. In assay [4] (72 h), the IC50 is 34 nM.

As to `COCCS(=O)(=O)n1cc(-c2nccc(Nc3cc4c(C(C)C)ccc(N5CC(CS(C)(=O)=O)C5)c4cn3)n2)cn1` [Compound H15], the GI50 in assay [1] was 148 nM; in assay [2], 4.3 nM; in assay [3], 5.7 nM; in assay [5], 8.6 nM. The IC50 in assay [4] came out at 6.6 nM.

Regarding `CC(C)c1ccc(N2CC(CS(C)(=O)=O)C2)c2cnc(Nc3ccnc(-c4cnn(S(=O)(=O)c5ccccn5)c4)n3)cc12` [Compound H16], the GI50 in assay [1] came to 1360 nM; in assay [2] it was 122 nM; in assay [3], 235 nM; in assay [5] it was 652 nM. Further, in assay [4] (72 h), the IC50 turned out to be 264 nM.

As for `CC(C)c1ccc(N2CC(CS(C)(=O)=O)C2)c2cnc(Nc3ccnc(-c4cnn(S(=O)(=O)C5COC5)c4)n3)cc12` [Compound H17], the GI50 turned out to be 858 nM in assay [1], 33 nM in assay [2], 56 nM in assay [3] and 127 nM in assay [5]. The IC50 in assay [4] (72 h) was found to be 58 nM.

With `COCCS(=O)(=O)n1cc(-c2nccc(Nc3cc4c(C(C)C)ccc(N5CC(CS(C)(=O)=O)C5)c4cn3)n2)cn1` [Compound H20], the GI50 in assay [1] stood at 2110 nM; in assay [2] it was 22 nM; in assay [3] it was 43 nM; in assay [5], 188 nM. Also, the IC50 in assay [4] stood at 53 nM.

For the compound `COCCS(=O)(=O)n1cc(-c2nccc(Nc3cc4c(C(C)C)ccc(N5C[C@H](CS(C)(=O)=O)[C@H]5C)c4cn3)n2)cn1` [Compound H21], the GI50 in assay [1] is 76 nM; in assay [2] it was 1.8 nM; in assay [3], 2.9 nM; in assay [5], 4.4 nM. Besides, the IC50 in assay [4] (72 h) is 4.3 nM.

On to `CCOCCS(=O)(=O)n1cc(-c2nccc(Nc3cc4c(C(C)C)ccc(N5C[C@H](CS(C)(=O)=O)[C@H]5C)c4cn3)n2)cn1` [Compound H22], for which the GI50 amounted to 229 nM in assay [1], 13 nM in assay [2], 17 nM in assay [3] and 14 nM in assay [5]. For the same compound, in assay [4] (72 h), the IC50 stood at 14 nM.

For the compound `CC(C)c1ccc(N2CC(CS(C)(=O)=O)C2)c2cnc(Nc3ccnc(-c4cnn(S(=O)(=O)C5CCOC5)c4)n3)cc12` (centres unmarked) [Compound H24], the GI50 in assay [1] worked out at 458 nM; in assay [2] it was 12 nM; in assay [3], 42 nM; in assay [5], 94 nM. Besides, the IC50 in assay [4] (72 h) worked out at 20 nM.

Consider `CC(C)c1ccc(N2CC(N(C)S(C)(=O)=O)C2)c2cnc(Nc3ccnc(-c4cnn(S(=O)(=O)C5CC5)c4)n3)cc12` [Compound H25], for which the GI50 in assay [1] is 208 nM; in assay [2], 9.6 nM; in assay [3], 14 nM; in assay [5], 26 nM. In addition, the IC50 in assay [4] (72 h) worked out at 11 nM.

With `CC(C)c1ccc(N2CC(CS(C)(=O)=O)C2)c2cnc(Nc3ccnc(-c4cnn(CC#N)c4)n3)cc12` [Compound H26], the GI50 turned out to be 1420 nM in assay [1], 56 nM in assay [2], 74 nM in assay [3] and 336 nM in assay [5]. Moreover, the IC50 in assay [4] (72 h) was found to be 128 nM.

Take `CCn1cc(-c2nccc(Nc3cc4c(C(C)C)ccc(N5CC(CS(C)(=O)=O)C5)c4cn3)n2)cn1` [Compound H27]: the GI50 in assay [1] is more than 10000 nM; in assay [2], 21 nM; in assay [3], 49 nM; in assay [5], 322 nM. In addition, in assay [4] (72 h), the IC50 came out at 53 nM.

Turning to `CC(C)c1ccc(N2C[C@H](CS(C)(=O)=O)[C@H]2C)c2cnc(Nc3ccnc(-c4cnn(S(=O)(=O)N(C)C)c4)n3)cc12` [Compound H28], the GI50 in assay [1] was 595 nM; in assay [2], 23 nM; in assay [3], 50 nM; in assay [5], 68 nM. Also, the IC50 in assay [4] (72 h) stood at 48 nM.

On to `CC(C)c1ccc(N2CC(CS(C)(=O)=O)C2)c2cnc(Nc3ccnc(-c4cnn(C)c4)n3)cc12` [Compound H29], for which the GI50 in assay [1] turned out to be 739 nM; in assay [2], 34 nM; in assay [3], 91 nM; in assay [5] it was 235 nM. Also, the IC50 in assay [4] (72 h) was determined as 59 nM.

As to `CC(C)c1ccc(N2C[C@H](CS(C)(=O)=O)[C@H]2C)c2cnc(Nc3ccnc(-c4cnn(S(=O)(=O)CCOC5CC5)c4)n3)cc12` [Compound H31], the GI50 in assay [1] was found to be 503 nM; in assay [2], 55 nM; in assay [3] it was 50 nM; in assay [5], 64 nM. Further, the IC50 in assay [4] (72 h) is 39 nM.

For the compound `CC(C)OCCS(=O)(=O)n1cc(-c2nccc(Nc3cc4c(C(C)C)ccc(N5C[C@H](CS(C)(=O)=O)[C@H]5C)c4cn3)n2)cn1` [Compound H32], the GI50 in assay [1] was 3290 nM; in assay [2], 226 nM; in assay [3], 510 nM; in assay [5], 397 nM. The IC50 in assay [4] (72 h) worked out at 340 nM.

Turning to `CCCS(=O)(=O)N(C)[C@H]1CN(c2ccc(C(C)C)c3cc(Nc4ccnc(-c5cnn(S(=O)(=O)C6CC6)c5)n4)ncc23)[C@@H]1C` [Compound H33], the GI50 in assay [1] is 202 nM; in assay [2] it was 5.9 nM; in assay [3], 14 nM; in assay [5], 13 nM. The IC50 in assay [4] (72 h) was determined as 7.1 nM.

With `CCCS(=O)(=O)C[C@H]1CN(c2ccc(C(C)C)c3cc(Nc4ccnc(-c5cnn(S(=O)(=O)C6CC6)c5)n4)ncc23)[C@@H]1C` [Compound H34], the GI50 in assay [1] is 656 nM; in assay [2], 28 nM; in assay [3], 65 nM; in assay [5], 73 nM. Further, the IC50 in assay [4] (72 h) came out at 37 nM.

`CC(C)c1ccc(N2CC(NS(=O)(=O)N(C)C)C2)c2cnc(Nc3ccnc(N4CCC(O)C(F)C4)n3)cc12` (centres unmarked) [Compound P27]: the GI50 in assay [1] turned out to be 2200 nM; in assay [2] it was 74 nM; in assay [3], 169 nM; in assay [5], 64 nM. For the same compound, the IC50 in assay [4] (72 h) stood at 226 nM.

On to `CCN(C1CN(c2ccc(C(C)C)c3cc(Nc4ccnc(N5CCC(OC)C(F)C5)n4)ncc23)C1)S(C)(=O)=O` (centres unmarked) [Compound P31], for which the GI50 worked out at 1460 nM in assay [1], 19 nM in assay [2], 86 nM in assay [3] and 18 nM in assay [5]. Also, the IC50 in assay [4] (72 h) amounted to 295 nM.

Consider `CCCS(=O)(=O)N[C@H]1CN(c2ccc(C(C)C)c3cc(Nc4ccnc(N5CCC(OC)C(F)C5)n4)ncc23)[C@@H]1C` (some centres unmarked) [Compound P32], for which the GI50 was found to be 565 nM in assay [1], 16 nM in assay [2], 22 nM in assay [3] and 8.9 nM in assay [5]. In assay [4] (72 h), the IC50 is 123 nM.

With `CC(C)c1ccc(N2CC(NS(=O)(=O)c3ccoc3)C2)c2cnc(Nc3ccnc(N4CCC(O)C(F)C4)n3)cc12` (centres unmarked) [Compound P33], the GI50 in assay [1] was 1500 nM; in assay [2] it was 115 nM; in assay [3], 218 nM; in assay [5], 91 nM. Moreover, in assay [4] (72 h), the IC50 turned out to be 351 nM.

Regarding `CC(C)c1ccc(N2CC(N3CCCS3(=O)=O)C2)c2cnc(Nc3ccnc(N4CCC(O)C(F)C4)n3)cc12` (centres unmarked) [Compound P34], the GI50 in assay [1] amounted to 903 nM; in assay [2] it was 83 nM; in assay [3] it was 206 nM; in assay [5], 78 nM. In addition, the IC50 in assay [4] (72 h) was found to be 234 nM.
